In brackets after ≈: the same amount, converted by molar mass.

One molecule from ChEMBL document CHEMBL3808371, “Design, synthesis and biological evaluation of diaziridinyl quinone isoxazole hybrids” (Eur J Med Chem, 2016) can be followed below.

Assay [1] deals with Bacillus subtilis. Briefly: Antibiofilm activity against Bacillus subtilis MTCC 121 after 24 hrs by crystal violet staining based assay. It counts as functional, organism-based. The following applies: MTCC 121, 24 h.
The subject of assay [2] is Raoultella planticola. Briefly: Bactericidal activity against Klebsiella planticola MTCC 530 after 24 hrs by serial dilution method. It counts as functional. Conditions: MTCC 530, 24 h.
In assay [3] the test system is Micrococcus luteus. Description: Antimicrobial activity against Micrococcus luteus MTCC 2470 after 24 hrs by well diffusion method. It counts as functional. Conditions: MTCC 2470, 24 h. Background: Agar diffusion results depend on both activity and mobility in agar.
In assay [4] the test system is Candida albicans. Description: Antimicrobial activity against Candida albicans MTCC 3017 after 24 hrs by well diffusion method. The class given is functional. The following applies: MTCC 3017, 24 h.
The test system of assay [5] is Pseudomonas aeruginosa. Description: Antimicrobial activity against Pseudomonas aeruginosa MTCC 2453 after 24 hrs by well diffusion method. It counts as functional. Conditions: MTCC 2453, 24 h.
Assay [6] deals with A549. Briefly: Selectivity ratio of IC50 for human PC3 cells to IC50 for human A549 cells. It counts as functional.
Assay [7] relates to Bacillus subtilis. Description: Bactericidal activity against Bacillus subtilis MTCC 121 after 24 hrs by serial dilution method. Conditions: MTCC 121, 24 h. It counts as functional.
Assay [8] relates to Staphylococcus aureus. Description: Antibiofilm activity against Staphylococcus aureus MTCC 96 after 24 hrs by crystal violet staining based assay. The class given is functional, organism-based. Conditions: MTCC 96, 24 h.
The subject of assay [9] is Micrococcus luteus. Description: Bactericidal activity against Micrococcus luteus MTCC 2470 after 24 hrs by serial dilution method. The following applies: MTCC 2470, 24 h. The class given is functional.
Assay [10] relates to Staphylococcus aureus. Briefly: Antimicrobial activity against Staphylococcus aureus MTCC 96 after 24 hrs by well diffusion method. The class given is functional. The following applies: MTCC 96, 24 h.
The subject of assay [11] is Raoultella planticola. Description: Antimicrobial activity against Klebsiella planticola MTCC 530 after 24 hrs by well diffusion method. The class given is functional. Conditions: MTCC 530, 24 h.
The subject of assay [12] is Escherichia coli. Briefly: Antimicrobial activity against Escherichia coli MTCC 739 after 24 hrs by well diffusion method. It counts as functional. Conditions: MTCC 739, 24 h.
The test system of assay [13] is Bacillus subtilis. Briefly: Antimicrobial activity against Bacillus subtilis MTCC 121 after 24 hrs by well diffusion method. The following applies: MTCC 121, 24 h. It counts as functional.
A short description of assay [14]: Cytotoxicity against human PC3 cells after 72 hrs by XTT assay. It counts as functional, cell-based. Conditions: PC-3, 72 h. (In general: Formazan colour is commonly taken as a measure of viable cells.)
For assay [15], the system named is Staphylococcus aureus. Briefly: Bactericidal activity against Staphylococcus aureus MLS16 MTCC 2940 after 24 hrs by serial dilution method. It counts as functional. Conditions: MLS16 MTCC 2940, 24 h.
In assay [16] the test system is Staphylococcus aureus. Briefly: Antimicrobial activity against Staphylococcus aureus MLS16 MTCC 2940 after 24 hrs by well diffusion method. Conditions: MLS16 MTCC 2940, 24 h. The class given is functional.
The test system of assay [17] is Staphylococcus aureus. Description: Antibiofilm activity against Staphylococcus aureus MLS16 MTCC 2940 after 24 hrs by crystal violet staining based assay. The class given is functional, organism-based. Conditions: MLS16 MTCC 2940, 24 h.
The subject of assay [18] is Staphylococcus aureus. Briefly: Bactericidal activity against Staphylococcus aureus MTCC 96 after 24 hrs by serial dilution method. The class given is functional. The following applies: MTCC 96, 24 h.
Assay [19] relates to Raoultella planticola. Briefly: Antibiofilm activity against Klebsiella planticola MTCC 530 after 24 hrs by crystal violet staining based assay. The class given is functional, organism-based. The following applies: MTCC 530, 24 h.
In assay [20] the test system is Micrococcus luteus. Description: Antibiofilm activity against Micrococcus luteus MTCC 2470 after 24 hrs by crystal violet staining based assay. The class given is functional, organism-based. The following applies: MTCC 2470, 24 h.
For assay [21], the system named is A549. Briefly: Cytotoxicity against human A549 cells after 72 hrs by XTT assay. The class given is functional, cell-based. The following applies: A549, 72 h.

The term IC50 denotes the concentration that gives 50% inhibition. Low values mean higher potency, high ones lower potency. For orientation: MBC means the smallest concentration meeting the test's criterion for killing. Usually MIC stands for the least concentration at which growth counts as inhibited. Low values mean inhibition by little substance, high ones a need for much substance. For the molecule `O=C1C=C(N2CC2)C(=O)C(c2cc(-c3ccc(C(=O)N4CCCCC4)s3)on2)=C1N1CC1`, the IC50 in assay [1] stood at 2.8 µM; in assay [8], 11.2 µM; in [14] it was 21.3 µM; in assay [17], 9.8 µM; in assay [19], 5.4 µM; in assay [20], 35.6 µM. The same molecule registered an IC50 in [21] of 1.7 µM. The MBC in assay [2] came to 15.6 µg/mL (≈ 34.6 µM); in assay [7], 15.6 µg/mL (≈ 34.6 µM); in assay [9] it was 125 µg/mL (≈ 277 µM); in assay [15], 62.5 µg/mL (≈ 139 µM); in assay [18], 31.2 µg/mL (≈ 69.3 µM). Besides, the MIC in assay [3] is 62.5 µg/mL (≈ 139 µM); in [4] it was 15.6 µg/mL (≈ 34.6 µM); in assay [5], > 125 µg/mL; in assay [10] it was 15.6 µg/mL (≈ 34.6 µM); in assay [11], 7.8 µg/mL (≈ 17.3 µM); in [12], > 125 µg/mL. The results for the MIC in assay [13] and in assay [16] were 3.9 µg/mL (≈ 8.66 µM) and 15.6 µg/mL (≈ 34.6 µM), respectively. The “Ratio IC50” value in [6] is 12.
